Read-outs that look alike come from different tables or passages of the source.
Legend:
JAK1 = JAK1 (Homo sapiens (Human), UniProt P23458); test: Jak biochemical HTRF assay, JAK1
JAK2 = JAK2 (Homo sapiens (Human), UniProt O60674); test: Jak biochemical HTRF assay, JAK2
[1] = JAK1 IC50 (nM), recombinant GST-tagged catalytic domain, [ATP] 31.8 μM
[2] = JAK2 IC50 (nM), recombinant GST-tagged catalytic domain, [ATP] […]
[3] = read-out: JAK1 IC50, recombinant GST-tagged catalytic domain, [ATP] 31.8 μM
[4] = read-out: JAK2 IC50, recombinant GST-tagged catalytic domain, [ATP] […]

Sequence of JAK1 (P23458 875-1153): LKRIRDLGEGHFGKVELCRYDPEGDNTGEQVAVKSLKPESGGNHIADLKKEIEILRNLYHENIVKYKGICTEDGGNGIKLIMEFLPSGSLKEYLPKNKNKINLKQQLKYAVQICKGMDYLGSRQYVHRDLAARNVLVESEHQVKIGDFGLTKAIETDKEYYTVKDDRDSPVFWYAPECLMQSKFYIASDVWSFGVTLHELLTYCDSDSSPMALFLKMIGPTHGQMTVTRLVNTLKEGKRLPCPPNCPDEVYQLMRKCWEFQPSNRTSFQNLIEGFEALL
Sequence of JAK2 (O60674 849-1124): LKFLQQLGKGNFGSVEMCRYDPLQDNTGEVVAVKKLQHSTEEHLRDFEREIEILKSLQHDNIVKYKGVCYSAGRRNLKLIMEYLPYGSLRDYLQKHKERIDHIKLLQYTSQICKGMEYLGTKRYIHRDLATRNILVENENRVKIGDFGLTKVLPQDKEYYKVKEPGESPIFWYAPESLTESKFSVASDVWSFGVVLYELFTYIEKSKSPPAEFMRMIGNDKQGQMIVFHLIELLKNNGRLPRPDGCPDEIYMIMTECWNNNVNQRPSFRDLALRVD

Compound	IC50 (JAK1; [1])	IC50 (JAK2; [2])	IC50 (JAK1; [3])	IC50 (JAK2; [4])
Cc1noc(-c2ccc(Nc3nn([C@H](CC#N)C4CC4)cc3C(N)=O)cc2)n1 (single isomer, unassigned) [Example 18-1, 1-[(1R or 1S)-2-cyano-1-cyclopropylethyl]-3-{[4-(3-methyl-1,2,4-oxadiazol-5-yl)phenyl]amino}-1H-pyrazole-4-carboxamide]	–	–	2 nM	19 nM
N#CC[C@@H](C1CCN(C(=O)OC2CCOCC2)CC1)n1cc(C(N)=O)c(Nc2ccc(F)cc2)n1 [Example 11-8, tetrahydro-2H-pyran-4-yl 4-[(1S)-1-{4-carbamoyl-3-[(4-fluorophenyl)amino]-1H-pyrazol-1-yl}-2-cyanoethyl]piperidine-1-carboxylate]	220 nM	1500 nM	–	–
N#CCC(C1CCCOC1)n1cc(C(N)=O)c(Nc2ccccc2)n1 (stereo not shown) [Example 1-15, 1-[2-cyano-1-(tetrahydro-2H-pyran-3-yl)ethyl]-3-(phenylamino)-1H-pyrazole-4-carboxamide]	501 nM	1480 nM	–	–
N#CC[C@@H](C1CCN(C(=O)OCCN2CCOCC2)CC1)n1cc(C(N)=O)c(Nc2ccc(F)cc2)n1 [Example 11-13, 2-morpholin-4-ylethyl 4-[(1S)-1-{4-carbamoyl-3-[(4-fluorophenyl)amino]-1H-pyrazol-1-yl}-2-cyanoethyl]piperidine-1-carboxylate]	753 nM	1500 nM	–	–
N#CCC(CC1CCOCC1)n1cc(C(N)=O)c(Nc2ccccc2)n1 (stereo not shown) [Example 1-10, 1-[2-cyano-1-(tetrahydro-2H-pyran-4-ylmethyl)ethyl]-3-(phenylamino)-1H-pyrazole-4-carboxamide]	289 nM	1480 nM	–	–
CC(C)(C)OC(=O)N1CCC(C(CC#N)n2cc(C(N)=O)c(Nc3ccccc3)n2)CC1 (single isomer, unassigned) [Example 15-1, tert-Butyl 4-{(1S or 1R)-1-[4-carbamoyl-3-(phenylamino)-1H-pyrazol-1-yl]-2-cyanoethyl}piperidine-1-carboxylate]	–	–	13 nM	601 nM
CC(C)(C)OC(=O)N1CCC(C(CC#N)n2cc(C(N)=O)c(Nc3ccc(F)cc3)n2)C1 (stereo not shown) [Example 1-3, tert-butyl 3-(1-{4-carbamoyl-3-[(4-fluorophenyl)amino]-1H-pyrazol-1-yl}-2-cyanoethyl)pyrrolidine-1-carboxylate]	267 nM	1480 nM	–	–
Cc1noc(-c2ccc(Nc3nn([C@@H](CC#N)C4CC4)cc3C(N)=O)cc2)n1 (single isomer, unassigned) [Example 18-2, 1-[(1R or 1S)-2-cyano-1-cyclopropylethyl]-3-{[4-(3-methyl-1,2,4-oxadiazol-5-yl)phenyl]amino}-1H-pyrazole-4-carboxamide]	–	–	34 nM	257 nM
CC(C)(C)OC(=O)N1CCC(C(CC#N)n2cc(C(N)=O)c(Nc3ccccc3)n2)CC1 (stereo not shown) [Example 1-2, tert-butyl 4-{1-[4-carbamoyl-3-(phenylamino)-1H-pyrazol-1-yl]-2-cyanoethyl}piperidine-1-carboxylate]	7 nM	228 nM	–	–
N#CCC(C1CC1)n1cc(C(N)=O)c(Nc2ccccc2F)n1 (stereo not shown) [Example 6-2, 1-(2-cyano-1-cyclopropylethyl)-3-[(2-fluorophenyl)amino]-1H-pyrazole-4-carboxamide]	–	–	360 nM	1480 nM

More lines, in order of falling IC50 (JAK1; [1]), values ahead:

IC50 (JAK1; [1])	IC50 (JAK2; [2])	IC50 (JAK1; [3])	IC50 (JAK2; [4])	Compound
190 nM	1500 nM	–	–	N#CC[C@@H](C1CCN(C(=O)OCc2ccccc2)CC1)n1cc(C(N)=O)c(Nc2ccc(F)cc2)n1 (single isomer, unassigned) [Example 12-6, benzyl 4-[(1S or 1R)-1-{4-carbamoyl-3-[(4-fluorophenyl)amino]-1H-pyrazol-1-yl}-2-cyanoethyl]piperidine-1-carboxylate]
126 nM	1400 nM	–	–	N#CCC(C1CCOC1)n1cc(C(N)=O)c(Nc2ccccc2)n1 (stereo not shown) [Example 1-14, 1-[2-cyano-1-(tetrahydrofuran-3-yl)ethyl]-3-(phenylamino)-1H-pyrazole-4-carboxamide]
122 nM	1500 nM	–	–	CS(=O)(=O)CCOC(=O)N1CCC(C(CC#N)n2cc(C(N)=O)c(Nc3ccc(F)cc3)n2)CC1 (stereo not shown) [Example 11-3, 2-(methylsulfonyl)ethyl 4-(1-{4-carbamoyl-3-[(4-fluorophenyl)amino]-1H-pyrazol-1-yl}-2-cyanoethyl)piperidine-1-carboxylate]
59 nM	524 nM	–	–	CC(C#N)Cn1cc(C(N)=O)c(Nc2ccc(F)cc2)n1 (stereo not shown) [Example 9, 1-(2-Cyanopropyl)-3-[(4-fluorophenyl)amino]-1H-pyrazole-4-carboxamide]
47 nM	115 nM	–	–	CC(C)(O)COCc1cccc(Nc2nn(C(CC#N)C3CC3)cc2C(N)=O)c1 (stereo not shown) [Example 6-1, 1-(2-Cyano-1-cyclopropylethyl)-3-({3-[(2-hydroxy-2-methylpropoxy)methyl]phenyl}amino)-1H-pyrazole-4-carboxamide]
42 nM	221 nM	–	–	Cc1nnc(-c2ccc(Nc3nn(C(CC#N)C4CC4)cc3C(N)=O)cc2)o1 (stereo not shown) [Example 4-25, 1-(2-cyano-1-cyclopropylethyl)-3-{[4-(5-methyl-1,3,4-oxadiazol-2-yl)phenyl]amino}-1H-pyrazole-4-carboxamide]
41 nM	262 nM	–	–	N#CCC(C1CC1)n1cc(C(N)=O)c(Nc2ccc(-c3cnco3)cc2)n1 (stereo not shown) [Example 4-24, 1-(2-cyano-1-cyclopropylethyl)-3-{[4-(1,3-oxazol-5-yl)phenyl]amino}-1H-pyrazole-4-carboxamide]
13 nM	43 nM	–	–	N#CCC(C1CC1)n1cc(C(N)=O)c(Nc2ccc(N3CCOCC3)cc2)n1 (stereo not shown) [Example 4-17, 1-(2-cyano-1-cyclopropylethyl)-3-[(4-morpholin-4-ylphenyl)amino]-1H-pyrazole-4-carboxamide]
12 nM	41 nM	–	–	N#CCC(C1CC1)n1cc(C(N)=O)c(Nc2cccc(CO)c2)n1 (stereo not shown) [Example 4-10, 1-(2-cyano-1-cyclopropylethyl)-3-{[3-(hydroxymethyl)phenyl]amino}-1H-pyrazole-4-carboxamide]
11 nM	75 nM	–	–	N#CCC(C1CC1)n1cc(C(N)=O)c(Nc2ccc(S(=O)(=O)C(F)(F)F)cc2)n1 (stereo not shown) [Example 4-28, 1-(2-cyano-1-cyclopropylethyl)-3-({4-[(trifluoromethyl)sulfonyl]phenyl}amino)-1H-pyrazole-4-carboxamide]
8 nM	45 nM	–	–	CC(=O)Nc1ccc(Nc2nn(C(CC#N)C3CC3)cc2C(N)=O)cc1 (stereo not shown) [Example 4-21, 3-{[4-(acetylamino)phenyl]amino}-1-(2-cyano-1-cyclopropylethyl)-1H-pyrazole-4-carboxamide]
7 nM	45 nM	–	–	CC(CC#N)n1cc(C(N)=O)c(Nc2ccc(S(C)(=O)=O)cc2)n1 (stereo not shown) [Example 10, 1-(2-Cyano-1-methylethyl)-3-{[4-(methylsulfonyl)phenyl]amino}-1H-pyrazole-4-carboxamide]
7 nM	425 nM	–	–	N#CC[C@@H](C1CCN(C(=O)OCC(F)(F)F)CC1)n1cc(C(N)=O)c(Nc2ccc(F)cc2)n1 [Example 11-7, 2,2,2-trifluoroethyl 4-[(1S)-1-{4-carbamoyl-3-[(4-fluorophenyl)amino]-1H-pyrazol-1-yl}-2-cyanoethyl]piperidine-1-carboxylate]

Reference: US9493441B2, “Acyclic cyanoethylpyrazoles as janus kinase inhibitors” (Merck Sharp & Dohme Corp., priority 2011, dated 2016)
